Reference: patent US10597388B2, “Pyridazinone herbicides” (FMC CORPORATION, priority 2014, dated 2020)

Experiments:
Assay in all cases: Test D controlled growth environment herbicide test, pre- and postemergence
Type in all cases: in vivo
[1] = test system: foxtail, green (green foxtail, Setaria viridis)
How it was run: (§1)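 Rating is visual, 0–100 scale (100 = complete control), made against untreated plants 14–21 d after treatment in controlled growth conditions. Postemergence sprays went onto 1- to 4-leaf plants in peat medium; preemergence sprays onto silt loam after sowing; formulation included a surfactant.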

[2] = test system: barley, spring (spring barley, Hordeum vulgare)
How it was run: as §1

[3] = test system: field poppy (Papaver rhoeas)
How it was run: as §1

[4] = test system: wheat, spring (spring wheat, Triticum aestivum)
How it was run: as §1

[5] = test system: chamomile (scentless chamomile, Matricaria inodora)
How it was run: as §1

[6] = test system: chickweed (common chickweed, Stellaria media)
How it was run: as §1

[7] = test system: blackgrass (Alopecurus myosuroides)
How it was run: as §1

[8] = test system: lambsquarters (Chenopodium album)
How it was run: as §1

[9] = test system: barley, winter (winter barley, Hordeum vulgare)
How it was run: as §1

[10] = test system: deadnettle (henbit deadnettle, Lamium amplexicaule)
How it was run: as §1

[11] = test system: bromegrass, downy (downy bromegrass, Bromus tectorum)
How it was run: as §1

[12] = test system: wheat, winter (winter wheat, Triticum aestivum)
How it was run: as §1

[13] = test system: ryegrass, Italian (Italian ryegrass, Lolium multiflorum)
How it was run: as §1

[14] = Postemergence, 31 g ai/ha, scale 0 to 100 (0 no effect, 100 complete control)
[15] = Postemergence, 125 g ai/ha, visual rating on scale 0 (no effect) to 100 (complete control), 14 to 21 d
[16] = Postemergence, 250 g ai/ha, scale 0 to 100 (0 no effect, 100 complete control)
[17] = Preemergence, 125 g ai/ha, scale 0 to 100 (0 no effect, 100 complete control)
[18] = Preemergence, 250 g ai/ha, scale 0 to 100 (0 no effect, 100 complete control)
[19] = postemergence, 62 g ai/ha, scale 0 to 100, 0 no effect, 100 complete control
[20] = Preemergence, 62 g ai/ha, scale 0 to 100 (0 no effect, 100 complete control)

SMILES: CC(=O)Oc1c(C)nn(C)c(=O)c1-c1ccc(F)c2ccccc12 [Compound 90]
- Foxtail, Green plant response rating [1, 14]: 25
- Plant response rating, Foxtail, Green [1, 15]: 70
- Plant response rating, Foxtail, Green [1, 16]: 75
- Plant response rating (scale of 0 to 100), Foxtail, Green ([1]; Preemergence, 31 g ai/ha): 25
- Plant response rating (scale of 0 to 100), Foxtail, Green ([1]; Preemergence, 62 g ai/ha): 45
- Plant response rating, Foxtail, Green [1, 17]: 70
- Plant response rating, Foxtail, Green [1, 18]: 95
- Plant response rating, Foxtail, Green [1, 19]: 55
- Barley, Spring plant response rating [2, 14]: 10
- Plant response rating, Barley, Spring [2, 15]: 35
- Plant response rating, Barley, Spring [2, 16]: 40
- Plant response rating (scale of 0 to 100), Barley, Spring ([2]; Preemergence, 31 g ai/ha): 0
- Plant response rating, Barley, Spring [2, 20]: 0
- Plant response rating, Barley, Spring [2, 17]: 20
- Plant response rating, Barley, Spring [2, 18]: 35
- Plant response rating, Barley, Spring [2, 19]: 25
- Field Poppy plant response rating [3, 14]: 65
- Plant response rating, Field Poppy [3, 15]: 75
- Plant response rating, Field Poppy [3, 16]: 90
- Plant response rating (scale of 0 to 100), Field Poppy ([3]; Preemergence, 31 g ai/ha): 15
- Plant response rating (scale of 0 to 100), Field Poppy ([3]; Preemergence, 62 g ai/ha): 100
- Plant response rating, Field Poppy [3, 17]: 100
- Plant response rating, Field Poppy [3, 18]: 100
- Plant response rating, Field Poppy [3, 19]: 70
- Wheat, Spring plant response rating [4, 14]: 25
- Plant response rating, Wheat, Spring [4, 15]: 40
- Plant response rating, Wheat, Spring [4, 16]: 50
- Plant response rating (scale of 0 to 100), Wheat, Spring ([4]; Preemergence, 31 g ai/ha): 20
- Plant response rating (scale of 0 to 100), Wheat, Spring ([4]; Preemergence, 62 g ai/ha): 35
- Plant response rating, Wheat, Spring [4, 17]: 60
- Plant response rating, Wheat, Spring [4, 18]: 70
- Plant response rating, Wheat, Spring [4, 19]: 35
- Chamomile plant response rating [5, 14]: 70
- Plant response rating, Chamomile [5, 15]: 98
- Plant response rating, Chamomile [5, 16]: 100
- Plant response rating (scale of 0 to 100), Chamomile ([5]; Preemergence, 31 g ai/ha): 100
- Plant response rating (scale of 0 to 100), Chamomile ([5]; Preemergence, 62 g ai/ha): 100
- Plant response rating, Chamomile [5, 17]: 100
- Plant response rating, Chamomile [5, 18]: 100
- Plant response rating, Chamomile [5, 19]: 75
- Chickweed plant response rating [6, 14]: 80
- Plant response rating, Chickweed [6, 15]: 98
- Plant response rating, Chickweed [6, 16]: 100
- Plant response rating (scale of 0 to 100), Chickweed ([6]; Preemergence, 31 g ai/ha): 100
- Plant response rating, Chickweed [6, 17]: 100
- Plant response rating, Chickweed [6, 18]: 100
- Plant response rating, Chickweed [6, 19]: 90
- Blackgrass plant response rating [7, 14]: 15
- Plant response rating, Blackgrass [7, 15]: 55
- Plant response rating, Blackgrass [7, 16]: 65
- Plant response rating (scale of 0 to 100), Blackgrass ([7]; Preemergence, 31 g ai/ha): 25
- Plant response rating, Blackgrass [7, 20]: 35
- Plant response rating, Blackgrass [7, 17]: 45
- Plant response rating, Blackgrass [7, 18]: 60
- Plant response rating, Blackgrass [7, 19]: 35
- Lambsquarters plant response rating [8, 14]: 90
- Plant response rating, Lambsquarters [8, 15]: 100
- Plant response rating, Lambsquarters [8, 16]: 100
- Plant response rating (scale of 0 to 100), Lambsquarters ([8]; Preemergence, 31 g ai/ha): 90
- Plant response rating (scale of 0 to 100), Lambsquarters ([8]; Preemergence, 62 g ai/ha): 98
- Plant response rating, Lambsquarters [8, 17]: 85
- Plant response rating, Lambsquarters [8, 18]: 100
- Plant response rating, Lambsquarters [8, 19]: 90
- Barley, Winter plant response rating [9, 14]: 0
- Plant response rating, Barley, Winter [9, 15]: 25
- Plant response rating, Barley, Winter [9, 16]: 35
- Plant response rating (scale of 0 to 100), Barley, Winter ([9]; Preemergence, 31 g ai/ha): 0
- Plant response rating, Barley, Winter [9, 20]: 0
- Plant response rating, Barley, Winter [9, 17]: 15
- Plant response rating, Barley, Winter [9, 18]: 30
- Plant response rating, Barley, Winter [9, 19]: 15
- Deadnettle plant response rating [10, 14]: 70
- Plant response rating, Deadnettle [10, 15]: 100
- Plant response rating, Deadnettle [10, 16]: 100
- Plant response rating (scale of 0 to 100), Deadnettle ([10]; Preemergence, 31 g ai/ha): 15
- Plant response rating (scale of 0 to 100), Deadnettle ([10]; Preemergence, 62 g ai/ha): 70
- Plant response rating, Deadnettle [10, 17]: 90
- Plant response rating, Deadnettle [10, 18]: 98
- Plant response rating, Deadnettle [10, 19]: 80
- Bromegrass, Downy plant response rating [11, 14]: 20
- Plant response rating, Bromegrass, Downy [11, 15]: 40
- Plant response rating, Bromegrass, Downy [11, 16]: 55
- Plant response rating (scale of 0 to 100), Bromegrass, Downy ([11]; Preemergence, 31 g ai/ha): 15
- Plant response rating, Bromegrass, Downy [11, 20]: 20
- Plant response rating, Bromegrass, Downy [11, 17]: 55
- Plant response rating, Bromegrass, Downy [11, 18]: 95
- Plant response rating, Bromegrass, Downy [11, 19]: 30
- Wheat, Winter plant response rating [12, 14]: 20
- Plant response rating, Wheat, Winter [12, 15]: 40
- Plant response rating, Wheat, Winter [12, 16]: 40
- Plant response rating (scale of 0 to 100), Wheat, Winter ([12]; Preemergence, 31 g ai/ha): 0
- Plant response rating (scale of 0 to 100), Wheat, Winter ([12]; Preemergence, 62 g ai/ha): 10
- Plant response rating, Wheat, Winter [12, 17]: 25
- Plant response rating, Wheat, Winter [12, 18]: 50
- Plant response rating, Wheat, Winter [12, 19]: 35
- Ryegrass, Italian plant response rating [13, 14]: 75
- Plant response rating, Ryegrass, Italian [13, 15]: 95
- Plant response rating, Ryegrass, Italian [13, 16]: 100
- Plant response rating (scale of 0 to 100), Ryegrass, Italian ([13]; Preemergence, 31 g ai/ha): 100
- Plant response rating (scale of 0 to 100), Ryegrass, Italian ([13]; Preemergence, 62 g ai/ha): 100
- Plant response rating, Ryegrass, Italian [13, 17]: 100
- Plant response rating, Ryegrass, Italian [13, 18]: 100
- Plant response rating, Ryegrass, Italian [13, 19]: 90
